In general, solubility refers to the dissolved amount per volume that the medium holds. One may read the Solubility as the dissolved amount per volume that the medium holds.

Here are results for 1 compound from US9084754B2, “Highly permeating terbinafine formulation” (NUVO RESEARCH INC., priority 2009, dated 2015).

The data set is described as follows: Solubility of terbinafine hydrochloride. The data set is classed as physicochemical. The conditions noted are these: for solubility at 24 h: thermodynamic from solid. As to the method:
Buffer Preparation: Buffers were prepared at 50 mM concentration using ammonium acetate (pHs 4.0 and 10.0) or ammonium phosphate (pHs 6.0, 7.0, and 8.0). Solubility Sample Preparation: 100 to 800 mg terbinafine HCL was transferred to separate 4-mL vials. To each vial, 2 mL of the solvent to be investigated was added. Samples were capped and then rotated for 24 hours at room temperature. The samples were allowed to settle overnight at room temperature. Approximately 0.4 mL of the supernatant was removed and transferred to a 0.45 μm Nylon microcentrifuge filter and clarified. Samples were diluted with 50% methanol to within the calibration range. Sample Analysis: Samples were analyzed by HPLC with five-minute runs.

Counter-ions that a name gives are not always drawn.

`CN(C/C=C/C#CC(C)(C)C)Cc1cccc2ccccc12` [Terbinafine, terbinafine hydrochloride]: the solubility at 24 h runs as follows: (50 mM ammonium acetate buffer pH 4.0, aqueous buffer, solvent pH 4.0 buffer) 4800 µg/mL; (50 mM ammonium acetate buffer pH 10.0, aqueous buffer, solvent pH 10.0 buffer) 1500 µg/mL; (50 mM ammonium phosphate buffer pH 6.0, aqueous buffer, solvent pH 6.0 buffer) 5000 µg/mL; (50 mM ammonium phosphate buffer pH 7.0, aqueous buffer, solvent pH 7.0 buffer) 20 µg/mL; (50 mM ammonium phosphate buffer pH 8.0, aqueous buffer, solvent pH 8.0 buffer) 2 µg/mL; (aqueous buffer, solvent PBS pH 5.5) 700 µg/mL. The solubility at 24 h (aqueous with cosolvent or surfactant or cyclodextrin, solvent 10% Ethanol) was 7500 µg/mL; the solubility at 24 h (aqueous with cosolvent or surfactant or cyclodextrin, solvent 20% Ethanol) was 11000 µg/mL; the solubility at 24 h (aqueous with cosolvent or surfactant or cyclodextrin, solvent 40% Ethanol) turned out to be 53000 µg/mL; the solubility at 24 h (aqueous with cosolvent or surfactant or cyclodextrin, solvent 50% Ethanol) is 119000 µg/mL; the solubility at 24 h (oil or lipid, solvent Isopropyl myristate) came to 30 µg/mL; the solubility at 24 h (organic solvent or mixture, solvent DMSO) was found to be 114000 µg/mL. Also, the solubility at 24 h turned out to be 172000 µg/mL (organic solvent or mixture, solvent Ethanol); 26300 µg/mL (organic solvent or mixture, solvent Isopropanol); 5900 µg/mL (solvent Water, room temperature). Also, the Solubility in words entry runs as follows: (aqueous solvents with pHs of 4 and 6) “moderate solubility”; (non-polar solvents such as ethyl acetate and isopropyl myristate) “lower solubility”; (pHs 7, 8, and 10) “substantially lower solubility”; (polar organic solvents such as ethanol and DMSO) “high solubility”. The compound further gave a Solubility (solvent 5% Ethanol) of 6700 µg/mL and a Solubility (solvent Ethyl acetate) of 700 µg/mL.
